Experimental data from patent publication US12637468B2, “Substituted [1,2,4]triazolo[4,3-b]pyridazines as GABAA receptor modulators” (SHANGHAI SIMR BIOTECHNOLOGY CO., LTD., priority 2019, dated 2026).
≈ marks a conversion by molar mass, not a printed value. One block for each molecule: values may come before it.

Key:
α5-GABAA receptor [1] = details: in vivo; cited from earlier work
α5-GABAA receptor [2] = target: T1, α5-GABAA receptor (Homo sapiens, UniProt P18507+P31644); assay: Cell-level screening: whole cell patch clamp, inverse agonist efficacy on α5-GABAA receptor expressed in HEK293; assay type: cell-based; details: drug 100 nM, GABA 0.05 μM, HEK293 expressing α5, β3 and γ2 subunits, clamped at −60 mV; read-out: Compound inverse agonist efficacy %
T1 construct: expressed in transfected cells; host or cells: HEK293, monoclonal stably transfected line
T1 sequence (P31644 32-462): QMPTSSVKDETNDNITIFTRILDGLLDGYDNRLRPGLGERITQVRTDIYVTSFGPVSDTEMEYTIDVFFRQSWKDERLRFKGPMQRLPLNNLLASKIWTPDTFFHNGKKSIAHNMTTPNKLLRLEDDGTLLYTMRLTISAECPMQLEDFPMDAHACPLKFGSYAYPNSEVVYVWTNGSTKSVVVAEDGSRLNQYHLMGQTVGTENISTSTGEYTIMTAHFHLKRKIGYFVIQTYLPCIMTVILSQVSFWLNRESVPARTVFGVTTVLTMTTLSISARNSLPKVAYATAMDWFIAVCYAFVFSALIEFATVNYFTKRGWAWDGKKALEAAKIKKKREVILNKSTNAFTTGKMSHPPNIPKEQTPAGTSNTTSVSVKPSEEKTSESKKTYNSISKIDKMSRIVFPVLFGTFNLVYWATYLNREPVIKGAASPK
T1 sequence (P28472 26-473 partner): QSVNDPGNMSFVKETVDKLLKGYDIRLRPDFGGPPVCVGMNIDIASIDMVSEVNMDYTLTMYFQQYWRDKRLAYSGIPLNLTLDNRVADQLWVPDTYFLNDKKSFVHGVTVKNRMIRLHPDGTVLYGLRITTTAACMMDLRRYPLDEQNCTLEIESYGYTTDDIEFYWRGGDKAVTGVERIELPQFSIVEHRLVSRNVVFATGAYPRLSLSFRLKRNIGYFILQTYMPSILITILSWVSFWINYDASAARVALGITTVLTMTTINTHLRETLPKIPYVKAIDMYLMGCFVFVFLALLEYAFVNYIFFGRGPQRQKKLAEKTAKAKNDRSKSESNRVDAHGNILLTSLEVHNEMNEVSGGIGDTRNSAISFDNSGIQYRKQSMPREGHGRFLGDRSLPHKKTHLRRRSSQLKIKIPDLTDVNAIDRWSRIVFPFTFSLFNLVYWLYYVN
T1 sequence (P18507 40-467 isoform P18507-1 limits assumed): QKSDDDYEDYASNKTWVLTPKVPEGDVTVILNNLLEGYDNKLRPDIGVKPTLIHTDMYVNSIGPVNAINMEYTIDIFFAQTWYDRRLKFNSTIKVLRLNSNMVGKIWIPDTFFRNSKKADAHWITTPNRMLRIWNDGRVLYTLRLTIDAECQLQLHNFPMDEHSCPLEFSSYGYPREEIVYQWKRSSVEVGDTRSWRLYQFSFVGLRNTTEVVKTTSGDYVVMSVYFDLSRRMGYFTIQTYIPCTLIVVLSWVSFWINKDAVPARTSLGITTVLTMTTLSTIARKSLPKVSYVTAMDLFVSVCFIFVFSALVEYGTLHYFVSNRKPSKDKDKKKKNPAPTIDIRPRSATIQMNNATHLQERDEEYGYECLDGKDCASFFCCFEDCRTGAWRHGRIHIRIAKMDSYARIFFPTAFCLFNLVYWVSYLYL
Method in brief: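 Whole-cell patch clamp at −60 mV on HEK293 stably expressing α5β3γ2, pH 7.4 extracellular/CsCl internal solutions. Current evoked by 0.05 μM GABA, then compound in GABA solution; screening at 100 nM, dose-response 0.3–300 nM. Inverse agonist efficacy as % change of GABA current.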

[3] = Rat liver microsome stability (RLM) experiment; assay type: in vitro ADME; details: rat liver microsomal stability
Protocol: Effect embodiment 3 Rat liver microsome stability (RLM) experiment
Rat liver microsomes (Xenotech, item No. R1000, lot No. 1310030), 100 mM potassium phosphate buffer solution (pH 7.4), 10 mM magnesium chloride.
Compound preparation: 5 μL of compound DMSO mother liquor (10 mM) was added to 495 μL of methanol to obtain an intermediate solution with a compound concentration of 100 μM. Then 50 μL of the intermediate solution was taken and dissolved in 450 μL of potassium phosphate buffer solution to obtain a test solution with a final concentration of 10 μM.
NADPH regeneration system (concentration of isocitrate dehydrogenase 1 unit/mL).
Liver microsomes (final concentration 0.5 mg protein/mL).
Reaction termination solution: cold acetonitrile containing 100 ng/mL Tolbutamide and 100 ng/mL Labetalol as an internal standard.
• (1) Preparation of buffer solution: • Buffer solution A: 1.0 L of 0.1 M potassium phosphate buffer solution containing 1.0 mM EDTA • Buffer solution B: 1.0 L of 0.1 M dipotassium phosphate buffer solution containing 1.0 mM EDTA • Buffer solution C: 0.1 M potassium phosphate buffer, 1.0 mM EDTA, pH 7.4, titrated with 700 mL of buffer solution B and buffer solution A, monitored by pH meter. • (2) Preparation of reference substance (ketanserin) and concentration of administration solution of the test substance:
[…]: […] 10 mM DMSO reference substance stock solution and test substance stock solution were added to 190 μL of ACN, respectively. 1.5 μM administration solution (containing 0.75 mg/mL liver microsomes): […] administration solution and 18.75 μL of 20 mg/mL liver microsomes were added to 479.75 μL of buffer C on a wet ice. • (3) NADPH was added to buffer solution C to obtain a NADPH stock solution (6 mM). • (4) 30 μL of 1.5 μM administration solution (containing 0.75 mg/mL of liver microsomes) was taken on the wet ice and added to the wells of the test plate at different time points (0-, 5-, 15-, 30-, 45-min), respectively. • (5) Firstly, 135 μL of ACN containing IS was added to the wells of a 0 min test plate, and then 15 μL of the NADPH stock solution (6 mM) was added. • (6) The test plate at other time points and the NADPH stock solution were pre-heated in a 37° C. water bath for 5 minutes. • (7) 15 μL of the NADPH stock solution (6 mM) was taken and added to a pre-incubated test plate, and the reaction was started and timed. • (8) At 5 min, 15 min, 30 min and 45 min, 135 μL of CAN containing IS was added to the corresponding test plate respectively, and the test was completed. • (9) Test plates were shaken with a shaker (IKA, MTS 2/4) for 10 min (600 rpm/min) and then centrifuged for 15 min (Thermo Multifuge×3R, 5594 g). • (10) 50 μL of supernatant from each well was added to a 96-well sample plate containing 50 μL of ultrapure water (Millipore, ZMQS50F01), and the samples were analyzed by LC/MS.

[4] = Pharmacokinetic experiment on rats: brain entry ratio (brain tissue/plasma concentration ratio); assay type: in vivo; details: rat, male SD rats, po 10 mg/kg
Protocol: The drug concentration ratio of plasma and brain tissue in the pharmacokinetic experiment on rats was used to evaluate the entry of compounds into brain. All rats fasted overnight before administration; the test compounds were dissolved and administered orally (po) to male SD rats, with 3 rats in each group. After administration of the test compounds, blood was collected by jugular vein puncture at 0.5 hours with about 0.25 mL per sample. The whole brain was taken at the same time. The plasma and brain tissue drug concentration were determined by LC-MS/MS method, and the pharmacokinetic parameters were calculated by Phoenix WinNonlin7.0. The dosage was 10 mg/kg, and the vehicle was 5% CMC-Na aqueous solution.

[5] = Thermodynamic solubility in phosphate buffer solution (TS in PBS); assay type: physicochemical; details: aqueous buffer, thermodynamic from solid, 50 mM phosphate buffer solution pH 7.4, shaken at room temperature for 24 hours
Protocol: 50 mM phosphate buffer solution pH=7.4:0.39 g of NaH2PO4·2H2O, and 1.4025 g of Na2HPO4 were weighted and placed in an erlenmeyer flask, then 240 mL of water was added thereto. The solid was dissolved and mixed thoroughly, and the pH value was adjusted to 7.4 with 10M NaOH solution, and the resulting solution was transferred to a 250 mL volumetric flask, followed by dilution to scale with water.
(§1) Waters e2695 HPLC high performance liquid chromatography, Mettler XSE105 analytical balance.
(§2) Firstly, a 10 mM stock solution was prepared with DMSO, and was diluted with a diluent (ACN: PB buffer 50:50) into 1 μM-200 μM as a standard solution.
Thermodynamic solubility in phosphate buffer solution (TS in PBS). 1 mg of the sample was weighed, and 1.5 mL of 50 mM phosphate buffer solution (pH 7.4) was added thereto, then the mixture was shaken at room temperature for 24 hours to ensure that the sample was saturated, and filtered. The filtrate was detected with the high performance liquid chromatograph (UV). The compounds of the present disclosure and comparative compounds are tested by this method, and the results are shown in Table 3 below: […]

α5-GABAA receptor [6] = details: in vivo; cited from earlier work; remark: listed apart in the source
[7] = Pharmacokinetic experiment on rats: maximum plasma drug concentration (Cmax); assay type: in vivo, rat; details: male SD rats, po, 10 mg/kg, vehicle 5% CMC-Na aqueous solution
Protocol: In the pharmacokinetic experiment on rats, the maximum plasma drug concentration (Cmax) was used to evaluate the absorption of the compounds in rats. All rats fasted overnight before administration; the test compounds were dissolved and administered orally (po) to male SD rats, with 3 rats in each group. After administration of the test compounds, blood was collected by jugular vein puncture at […] with about 0.25 mL per sample. The plasma drug concentration was determined by LC-MS/MS method, and the pharmacokinetic parameters were calculated by Phoenix WinNonlin7.0. The dosage was 10 mg/kg, and the vehicle was 5% CMC-Na aqueous solution.

α5-GABAA receptor [8] = details: cited from earlier work
[9] = Thermodynamic solubility in simulated intestinal fluid (TS in FaSSIF); assay type: physicochemical; details: thermodynamic from solid, 37° C.
Protocol: Simulated intestinal fluid FaSSIF: 54.76 mg of FaSSIF-V2 (Biorelevant, batch. V2FAS-0619-A, lot. V2FAS01) was weighed and added to 15 mL of a buffer solution. After dissolving, the solution was supplemented to 30 mL, and put at room temperature for 1 hour before use.
as §1, §2
Thermodynamic solubility in intestinal fluid (TS in FaSSIF) was simulated. About 0.3 mg of each sample was weighed and added to 1.5 mL of FaSSIF solution, with two parts in parallel, shaken at 1000 rpm at 37° C. for 4 hours, filtered. 1 mL of an initial filtrate was discarded, and 400 μL of the subsequent filtrate was taken. The filtrate was detected by high performance liquid chromatograph (UV).

[10] = Water solubility observed on extraction work-up; assay type: physicochemical; details: observed on extraction with ethyl acetate at pH=7
Protocol: Methyl 6-[7-methoxy-3-(5-methyl-isoxazol-3-yl)-[1,2,4]triazolo[4,3-b]pyridazin-6-yloxymethyl]-nicotinate (300 mg, 0.75 mmol), 1M lithium hydroxide (1.5 mL, 1.5 mmol) were sequentially added to 10 mL of ethanol, and the mixture was stirred at room temperature for 1 hour. The mixture was added with 0.5 M hydrochloric acid to neutralize to pH=7, diluted with water, extracted with ethyl acetate. […] LC-MS: m/z [M+H]^+=383.

[11] = Table 4, 0.5 mg protein/mL, NADPH, 37° C., 0-45 min

Structure (SMILES): Cn1ncnc1COc1nn2c(-c3cc(CO)on3)nncc2c1C(C)(C)C [MRK016-M3]
- inhibition of (3H)RO-15-1788 binding in the central nervous system (α5-GABAA receptor [1]): hardly inhibit

- inhibition at 0.1 µM (α5-GABAA receptor [2]): 55.8%
- RLM [3, 11]: 5 µL/min/mg
- Kp at 0.5 h ([4]; Table 7): 0.0183
Structure (SMILES): COc1cc2nnc(-c3cc(C)on3)n2nc1OCc1ccc2c(n1)CCN(C1CCOC1)C2 (centres unmarked) [Embodiment 183]

- solubility thermodynamic at 24 h [5]: 0.3 µg/mL (≈ 0.837 µM)
Structure (SMILES): Cc1cc(-c2nnc3c4ccccc4c(OCc4ccccn4)nn23)no1 [drawing 917]

Structure (SMILES): Cc1cc(-c2nncc3c(C(C)(C)C)c(OCc4ncnn4C)nn23)no1 [MRK-016]
- inhibition of (3H)RO-15-1788 binding in the central nervous system (α5-GABAA receptor [1]): effectively inhibit
- therapeutic effects on the treatment of cognition related diseases in animal models (α5-GABAA receptor [6]): good therapeutic effects

- Maximum plasma drug concentration [7]: 25.7 ng/ mL ng/mL
- Kp at 0.5 h ([4]; Table 6): 1.51
Structure (SMILES): Cc1cc(-c2nnc3c4ccccc4c(OCc4ccccn4)nn23)no1 [drawing 929, reference compound]

- Maximum plasma drug concentration [7]: 1778 ng/mL
- Kp at 0.5 h ([4]; Table 6): 0.07
Structure (SMILES): COc1cc2nnc(-c3cc(C)on3)n2nc1OCc1ccccn1 [drawing 928]

- solubility thermodynamic at 24 h [5]: 0.8 µg/mL (≈ 1.86 µM)
Structure (SMILES): CCNC(=O)c1ccc(COc2nn3c(-c4cc(C)on4)nnc3c3ccccc23)nc1 [drawing 920]

- solubility thermodynamic at 24 h [5]: 2.5 µg/mL (≈ 5.74 µM)
Structure (SMILES): CCNC(=O)c1ccc(COc2nn3c(-c4cc(C)on4)nnc3cc2C(C)(C)C)nc1 [drawing 921]

Structure (SMILES): CCOC(=O)c1ncn2c1[C@@H]1CCCN1C(=O)c1cc(OC)ccc1-2 [L-655,708]
- suppression of the current (α5-GABAA receptor [8]; GABA 1 μM, highest concentration of L-655,708): 15%
- inhibition of the current induced by low concentrations of GABA (α5-GABAA receptor [8]; GABA 5, 50 and 500 nM): dose-dependently inhibited
- inhibitory effect on the current induced by GABA (α5-GABAA receptor [8]; GABA concentration increased above 1 μM): no inhibitory effect

- RLM ([3]; Table 5, compounds of the disclosure and comparative compounds): 28.2 µL/min/mg
Structure (SMILES): Cc1cc(-c2nnc3c4ccccc4c(OCc4ccccn4)nn23)no1 [drawing 923, reference compound]

- solubility thermodynamic at 24 h [5]: 14.2 µg/mL (≈ 34.7 µM)
Structure (SMILES): CCNC(=O)c1ccc(COc2nn3c(-c4cc(C)on4)nnc3cc2OC)nc1 [drawing 919]

- Maximum plasma drug concentration [7]: 216 ng/mL
- Kp at 0.5 h ([4]; Table 6): 0.651
Structure (SMILES): Cc1cc(-c2nnc3cc(C(C)(C)C)c(OCc4ccccn4)nn23)no1 [drawing 930, reference compound]

- inhibition at 0.1 µM (α5-GABAA receptor [2]): 24.2%
- solubility thermodynamic at 4 h [9]: 307 µg/mL (≈ 803 µM)
- water solubility [10]: good water solubility
Structure (SMILES): COc1cc2nnc(-c3cc(C)on3)n2nc1OCc1ccc(C(=O)O)cn1 [Embodiment 63, 6-(((7-Methoxy-3-(5-methylisoxazol-3-yl)-[1,2,4]triazolo[4,3-b]pyridazin-6-yl)oxy)methyl)nicotinate]

- solubility thermodynamic at 24 h [5]: 20.1 µg/mL (≈ 59.4 µM)
Structure (SMILES): COc1cc2nnc(-c3cc(C)on3)n2nc1OCc1ccccn1 [drawing 916]

- inhibition at 0.1 µM (α5-GABAA receptor [2]): 64.7%
- RLM [3, 11]: 5 µL/min/mg
- Kp at 0.5 h ([4]; Table 7): 0.018
Structure (SMILES): COc1cc2nnc(-c3cc(C)on3)n2nc1OCc1ccc2nc(C#N)cn2n1 [Embodiment 211, 6-(((7-Methoxy-3-(5-methylisoxazol-3-yl)-[1,2,4]triazolo[4,3-b]pyridazin-6-yl)oxy)methyl)imidazo[1,2-b]pyridazine-2-carbonitrile]

Structure (SMILES): Cc1cc(-c2nnc3c4ccccc4c(OCc4cn(C)nn4)nn23)no1 [α5IA]
- therapeutic effects on the treatment of cognition related diseases in animal models (α5-GABAA receptor [6]): good therapeutic effects

- solubility thermodynamic at 24 h [5]: 2.6 µg/mL (≈ 7.13 µM)
Structure (SMILES): Cc1cc(-c2nnc3cc(C(C)(C)C)c(OCc4ccccn4)nn23)no1 [drawing 918]
